Broadly, the Kd is a measure of binding affinity in units of concentration. In general, IC50 refers to the midpoint of a concentration-inhibition curve.

For one data set, the system named is RXRγ. Conditions: reporter gene assay; read-out: RXRγ cellular activity/potency; cited from earlier work.
Data set [1] has as its system RXRα. Conditions: reporter gene assay; read-out: RXRα cellular activity/potency; cited from earlier work. On the technique in general: In a reporter assay the amount or activity of a reporter protein is the signal.
For another data set, the target named is T1, PNR (NR2E3) (Homo sapiens, UniProt Q9Y5X4).
T1 construct: encoding the hinge region and the LBD of the canonical isoform of the respective human nuclear receptors; expressed in transfected cells; host or cells: HEK293T
T1 sequence (Q9Y5X4 169-410 limits assumed): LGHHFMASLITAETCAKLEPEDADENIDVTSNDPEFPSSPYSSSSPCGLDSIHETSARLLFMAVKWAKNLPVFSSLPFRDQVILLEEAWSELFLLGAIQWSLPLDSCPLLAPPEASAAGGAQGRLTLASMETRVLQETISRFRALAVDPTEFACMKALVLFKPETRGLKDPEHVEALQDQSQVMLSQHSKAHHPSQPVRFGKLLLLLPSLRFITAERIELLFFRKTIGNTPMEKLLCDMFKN
The experiment in a line: Gal4-hybrid reporter gene assay PNR. Conditions: selected test concentration (Figure 3). It counts as cell-based. The protocol:
Gal4-hybrid reporter gene assays were performed as described previously using the plasmids pFA-CMV-hTHRα-LBD,[170] pFA-CMV-hRARα-LBD,[171] pFA-CMV-hPPARα-LBD,[172] pFA-CMV-hPPARγ-LBD,[172] pFA-CMV-hPPARδ-LBD,[172] pFA-CMV-revERBα-LBD,[158] pFA-CMV-hRORα-LBD,[173] pFA-CMV-hLXRα-LBD,[118] pFA-CMV-hFXR-LBD,[174] pFA-CMV-hVDR-LBD,[171] pFA-CMV-hCAR-LBD,[171] pFA-CMV-hHNF4α-LBD,[110] pFA-CMV-hRXRα-LBD,[175] pFA-CMV-hTR2-LBD,[102] pFA-CMV-hTR4-LBD,[102] pFA-CMV-hTLX-LBD,[102] pFA-CMV-hNR2E3-LBD,[102] pFA-CMV-hNur77-LBD,[176] pFA-CMV-hSF1-LBD[158] encoding the hinge region and the LBD of the canonical isoform of the respective human nuclear receptors. pFR-Luc (Stratagene, La Jolla, CA, USA) was used as a reporter plasmid, and pRL-SV40 (Promega, Madison, WI, USA) was used for normalization of transfection efficiency and cell growth. HEK293T cells (German Collection of Microorganisms and Cell Culture GmbH, DSMZ) were cultured in Dulbecco’s modified Eagle’s medium (DMEM), high glucose supplemented with 10% fetal calf serum (FCS), sodium pyruvate (1 mM), penicillin (100 U/mL), and streptomycin (100 μg/mL) at 37 °C and 5% CO2 and seeded in 96-well plates (3 × 10^4 cells/well). The medium was changed to Opti-MEM without supplements, and the cells were transiently transfected with one pFA-CMV-hNR-LBD clone, pFR-Luc, and pRL-SV40 using Lipofectamine LTX reagent (Invitrogen, Thermo Fisher Scientific) according to the manufacturer’s instructions. Five hours after transfection, cells were incubated with the test compounds in Opti-MEM supplemented with penicillin (100 U/mL), streptomycin (100 μg/mL), and 0.1% DMSO. Each sample was set up in duplicates and tested in at least three independent experiments. After 16 h incubation, luciferase activity was measured using the Dual-Glo Luciferase Assay System (Promega) according to the manufacturer’s protocol on a Tecan Spark luminometer (Tecan Deutschland GmbH, Crailsheim, Germany). Firefly luminescence was divided by Renilla luminescence and multiplied by 1000 resulting in relative light units (RLUs) to normalize for transfection efficiency and cell growth. Fold activation was obtained by dividing the mean RLU of the test compound by the mean^a RLU of the untreated control, and relative activation was calculated by dividing the fold activation of a test sample by the fold activation of the respective reference agonist. Antagonistic effects were evaluated by coincubation of the test compound with the respective reference ligand.

A further data set has as its target T2, TR2 (Homo sapiens, UniProt P13056).
T2 construct: encoding the hinge region and the LBD of the canonical isoform of the respective human nuclear receptors; expressed in transfected cells; host or cells: HEK293T
The experiment in a line: Gal4-hybrid reporter gene assay TR2. Conditions: 1 µM. It counts as cell-based. As for the experimental part: (§1) Gal4-hybrid reporter gene assays were performed as described previously using the plasmids pFA-CMV-hTHRα-LBD,[170] pFA-CMV-hRARα-LBD,[171] pFA-CMV-hPPARα-LBD,[172] pFA-CMV-hPPARγ-LBD,[172] pFA-CMV-hPPARδ-LBD,[172] pFA-CMV-revERBα-LBD,[158] pFA-CMV-hRORα-LBD,[173] pFA-CMV-hLXRα-LBD,[118] pFA-CMV-hFXR-LBD,[174] pFA-CMV-hVDR-LBD,[171] pFA-CMV-hCAR-LBD,[171] pFA-CMV-hHNF4α-LBD,[110] pFA-CMV-hRXRα-LBD,[175] pFA-CMV-hTR2-LBD,[102] pFA-CMV-hTR4-LBD,[102] pFA-CMV-hTLX-LBD,[102] pFA-CMV-hNR2E3-LBD,[102] pFA-CMV-hNur77-LBD,[176] pFA-CMV-hSF1-LBD[158] encoding the hinge region and the LBD of the canonical isoform of the respective human nuclear receptors. pFR-Luc (Stratagene, La Jolla, CA, USA) was used as a reporter plasmid, and pRL-SV40 (Promega, Madison, WI, USA) was used for normalization of transfection efficiency and cell growth. […] After 16 h incubation, luciferase activity was measured using the Dual-Glo Luciferase Assay System (Promega) according to the manufacturer’s protocol on a Tecan Spark luminometer (Tecan Deutschland GmbH, Crailsheim, Germany). Firefly luminescence was divided by Renilla luminescence and multiplied by 1000 resulting in relative light units (RLUs) to normalize for transfection efficiency and cell growth. […] Antagonistic effects were evaluated by coincubation of the test compound with the respective reference ligand.

The target of data set [2] is T3, RXRα (Homo sapiens, UniProt P19793).
T3 sequence (P19793 227-458 limits assumed): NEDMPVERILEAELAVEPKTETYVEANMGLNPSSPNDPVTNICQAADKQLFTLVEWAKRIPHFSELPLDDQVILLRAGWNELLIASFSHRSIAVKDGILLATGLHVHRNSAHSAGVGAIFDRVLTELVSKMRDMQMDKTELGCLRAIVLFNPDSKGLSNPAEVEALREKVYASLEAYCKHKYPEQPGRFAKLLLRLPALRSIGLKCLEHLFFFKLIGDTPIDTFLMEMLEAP
The experiment in a line: Gal4-hybrid reporter gene assay RXRα. Conditions: 1 µM.

For a further data set, the system named is RXRβ. Conditions: reporter gene assay; read-out: RXRβ cellular activity/potency; cited from earlier work.
A further data set has as its target T4, TR4 (Homo sapiens, UniProt P49116).
T4 construct: encoding the hinge region and the LBD of the canonical isoform of the respective human nuclear receptors; expressed in transfected cells; host or cells: HEK293T
The experiment in a line: Gal4-hybrid reporter gene assay TR4. It counts as cell-based. Conditions: 1 µM. As for the experimental part: as §1

The target of data set [3] is T5, TLX (Homo sapiens, UniProt Q9Y466).
T5 construct: encoding the hinge region and the LBD of the canonical isoform of the respective human nuclear receptors; expressed in transfected cells; host or cells: HEK293T
T5 sequence (Q9Y466 155-383 limits assumed): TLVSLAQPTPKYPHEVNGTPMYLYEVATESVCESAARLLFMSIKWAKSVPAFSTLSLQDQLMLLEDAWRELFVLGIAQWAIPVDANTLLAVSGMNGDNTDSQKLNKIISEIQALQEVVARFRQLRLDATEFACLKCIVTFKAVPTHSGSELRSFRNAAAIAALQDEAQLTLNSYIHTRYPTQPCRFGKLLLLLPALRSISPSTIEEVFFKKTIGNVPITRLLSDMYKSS
The experiment in a line: Gal4-hybrid reporter gene assay TLX. The format is cell-based. Conditions: selected test concentration (Figure 3).

The next data set deals with RARα (Homo sapiens, UniProt P10276). Conditions: selected test concentration (Figure 3).
Chain of RARα (P10276 183-417 limits assumed): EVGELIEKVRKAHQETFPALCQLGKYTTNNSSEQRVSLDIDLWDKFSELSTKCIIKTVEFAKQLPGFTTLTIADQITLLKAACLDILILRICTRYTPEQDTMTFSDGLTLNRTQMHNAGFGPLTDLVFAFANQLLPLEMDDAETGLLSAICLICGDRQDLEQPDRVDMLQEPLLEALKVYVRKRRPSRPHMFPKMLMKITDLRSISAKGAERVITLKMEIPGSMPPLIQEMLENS
For the next data set, the system named is TLX LBD. Conditions: FP assay, cited from earlier work.
In another data set the test system is full-length TLX. Conditions: reporter gene assay; read-out: IC50 (second value of cell; full-length TLX); cited from earlier work.
In data set [4] the test system is TLX. Conditions: reporter gene assay; read-out: IC50 (first value of cell; TLX/Gal4); cited from earlier work.
A further data set has as its system HEK293T cells. Conditions: cited from earlier work.
The next data set concerns RARs and RXRs. On the set-up: method as in PMID 32763139. Conditions: cited from earlier work.
Data set [5] concerns NR2F1-regulated genes SOX9, RARβ, and p27. On the set-up: method as in PMID 34812843. Conditions: chicken embryo chorioallantoic membrane tumors; cited from earlier work.
The test system of data set [6] is head and neck squamous-cell carcinoma (HNSCC). More on the design: method as in PMID 34812843. Conditions: mice; cited from earlier work.
For data set [7], the system named is NR2F1. More on the design: method as in PMID 34812843. Conditions: cited from earlier work.
The test system of data set [8] is NR2F1. On the set-up: method as in PMID 34812843. Conditions: T-Hep3 cells on chicken embryo chorioallantoic membrane; cited from earlier work.
In a further data set the test system is prostate cancer tumor. More on the design: method as in PMID 32494682. Conditions: xenograft mouse model, 2.6 mg/kg; cited from earlier work.
Data set [9] has as its system COUP-TF2 target genes FOXM1 and CDK1. More on the design: method as in PMID 32494682. Conditions: prostate cancer cells; cited from earlier work.
Data set [10] concerns HNF4α, RXRα, PPARα, LXRα, GR, PR, ER, RAR, RORγ, AR, and COUP-TF1. More on the design: method as in PMID 32494682. Conditions: cited from earlier work.
The next data set deals with COUP-TF2. More on the design: method as in PMID 32494682. Conditions: reporter gene assay; cited from earlier work.

T4 sequence (P49116 341-583 limits assumed): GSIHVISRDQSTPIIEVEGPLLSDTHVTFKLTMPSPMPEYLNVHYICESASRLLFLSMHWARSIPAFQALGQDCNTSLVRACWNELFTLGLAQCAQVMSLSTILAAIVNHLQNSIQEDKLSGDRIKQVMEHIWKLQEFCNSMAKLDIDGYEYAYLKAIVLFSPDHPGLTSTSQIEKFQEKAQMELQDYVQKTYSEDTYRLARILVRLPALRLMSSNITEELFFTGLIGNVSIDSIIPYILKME
T2 sequence (P13056 348-590 limits assumed): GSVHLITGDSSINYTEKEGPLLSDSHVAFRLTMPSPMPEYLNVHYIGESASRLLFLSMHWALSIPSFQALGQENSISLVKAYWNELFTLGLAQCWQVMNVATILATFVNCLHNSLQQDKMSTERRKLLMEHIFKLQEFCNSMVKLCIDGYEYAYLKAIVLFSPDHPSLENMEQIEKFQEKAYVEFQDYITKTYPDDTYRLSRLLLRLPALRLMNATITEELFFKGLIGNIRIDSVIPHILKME
Protocol for RARα: HEK293T cells (German Collection of Microorganisms and Cell Culture GmbH, DSMZ) were cultured in Dulbecco’s modified Eagle’s medium (DMEM), high glucose supplemented with 10% fetal calf serum (FCS), sodium pyruvate (1 mM), penicillin (100 U/mL), and streptomycin (100 μg/mL) at 37 °C and 5% CO2 and seeded in 96-well plates (3 × 10^4 cells/well). The medium was changed to Opti-MEM without supplements, and the cells were transiently transfected with one pFA-CMV-hNR-LBD clone, pFR-Luc, and pRL-SV40 using Lipofectamine LTX reagent (Invitrogen, Thermo Fisher Scientific) according to the manufacturer’s instructions. […] After 16 h incubation, luciferase activity was measured using the Dual-Glo Luciferase Assay System (Promega) according to the manufacturer’s protocol on a Tecan Spark luminometer (Tecan Deutschland GmbH, Crailsheim, Germany). Firefly luminescence was divided by Renilla luminescence and multiplied by 1000 resulting in relative light units (RLUs) to normalize for transfection efficiency and cell growth. Fold activation was obtained by dividing the mean RLU of the test compound by the mean^a RLU of the untreated control, and relative activation was calculated by dividing the fold activation of a test sample by the fold activation of the respective reference agonist. Antagonistic effects were evaluated by coincubation of the test compound with the respective reference ligand.

In the case of `CC1(C)CCC(C)(C)c2cc(C3(c4ccc(C(=O)O)cc4)OCCO3)ccc21` [compound 11], the EC50 is 0.232 µM with RXRγ, 0.029 µM with RXRα [1] and 0.098 µM with RXRβ. Moreover, the PNR modulation entry on PNR (NR2E3) is recorded as “off-target activities”. Moreover, the TR2 off-target activity entry at TR2 is reported as “off-target activities”. On RXRα [2], the RXR activation entry is recorded as “strong RXR activation”. Besides, the TR4 off-target activity result at TR4 was “off-target activities”.
Turning to `CC1(C)CC=C(c2ccccc2)c2cc(/C=C/c3ccc(C(=O)O)cc3)ccc21` [compound 17], the TLX modulation entry at TLX [3] is on record as “not observed”. Moreover, the RAR activation entry at RARα is reported as “activated RAR”. For the same molecule, the “effect on atrophin binding to TLX LBD” value with TLX LBD was “displacement of atrophin”. The dissociation constant Kd at TLX LBD (no precise value reported) was approximately 1 µM. Besides, the IC50 is 0.159 µM in the data set with full-length TLX and 0.367 µM with TLX [4]. The “toxicity in HEK293T cells used for the reporter gene assays” value in the data set with HEK293T cells is “pronounced toxicity”. The “activity on RARs and RXRs” value in the data set with RARs and RXRs was “agonism on RARs and RXRs”.
In the case of `CCSc1nnc2n(CCc3ccccc3)c(=O)c3c(n12)-c1ccccc1CC31CCCCC1` [compound 26], the “expression of NR2F1-regulated genes SOX9, RARβ, and p27” value in data set [5] is recorded as “induced expression”. Besides, the PNR modulation result on PNR (NR2E3) is listed as “confirmed albeit with rather low efficacy”. Further, in data set [6], the “tumor growth and metastasis of HNSCC” value was “inhibited tumor growth and metastasis”. Moreover, the “fold activation @ 0.1 μM” value in the data set on NR2F1 [7] (reporter gene assay, 0.1 μM) is recorded as 2.4 f.A. In addition, in the data set with NR2F1 [7] (reporter gene assay, 1 μM), the “fold activation @ 1 μM” value is 1.9 f.A. Also, the EC50 in the data set with NR2F1 [7] (reporter gene assay, two cell lines) was 0.5 to 1 µM. Besides, the “enhancement of reporter activity” value in the data set with NR2F1 [7] (two cell lines) is reported as “approximately two-fold”. Also, in the data set with NR2F1 [8], the “increase in NR2F1 mRNA” value is recorded as 2.3 fold and the “increase in NR2F1 protein levels” value was 10 fold.
As to `COc1ccc(CCNc2ncnc3sc(C)cc23)cc1OC` [compound 27], the “prostate cancer tumor growth and angiogenesis” value with prostate cancer tumor was “inhibited prostate cancer tumor growth and angiogenesis”. Besides, the “expression of COUP-TF2 target genes FOXM1 and CDK1” value in data set [9] is “altered expression”. Further, in [10], the “interaction with related NRs in pulldown assay” value is on record as “no relevant interaction”. The IC50 in the data set on COUP-TF2 is 3.2 µM.

The record behind these values is PMC7617459, “Comparative Evaluation and Profiling of Chemical Tools for the Nuclear Hormone Receptor Family 2” (ACS pharmacology & translational science, 2025).
